Data set [1] is described as follows: LogD determination, shake-flask method. The data set is classed as physicochemical. Particulars: octanol/PBS, pH 7.4. On the procedure:
In total, 0.11 mg of each compound was weighed out into 2 mL centrifuge tubes; 1 mL of octanol-saturated PBS or 0.1M HCl was added to each centrifuge tube and vortexed to dissolve. Then, 0.5–1.0 mL of the PBS-saturated octanol was added to the 0.5–1.0 mL octanol-saturated PBS supernatant and vortexed. Next, 100 μL of the octanol-saturated PBS phase from each centrifuge tube was added to separate UPLC vials; 100 μL of 50:50 MP H2O:ACN was added to each vial and vortexed. The remaining octanol-saturated PBS layer was removed from the vial using a micropipette and stored in a separate vial, and 100 μL of the PBS-saturated octanol layer from each centrifuge tube was added to separate UPLC vials. In total, 100 μL of 50:50 MP H2O:ACN was added to each vial and vortexed. These procedures were repeated in triplicate and then analyzed by UPLC/UV-VIS.

Another data set concerns JHMV-nLuc. The class given is cell-based, murine hepatitis virus (MHV).
The nature of data set [2]: AlphaScreen counter screen with Bn-His6 control peptide. The conditions noted are these: same figure table as Mac1 IC50 (μM), NI not defined; for IC50: Bn-His peptide control, unit inferred. The protocol:
The AlphaScreen reactions were carried out in 384-well plates (Alphaplate, PerkinElmer, Waltham, MA) in a total volume of 40 µL in buffer containing 25 mM HEPES (pH 7.4), 100 mM NaCl, 0.5 mM TCEP, 0.1% BSA, and 0.05% CHAPS. All reagents were prepared as 4× stocks, and 10 µL of each reagent was added to a final volume of 40 µL. All compounds were transferred acoustically using ECHO 555 (Beckman Inc) and preincubated after mixing with purified His-tagged macrodomain protein (250 nM) for 30 min at RT, followed by the addition of a 10 amino acid biotinylated and ADP-ribosylated peptide [ARTK(Bio) QTARK (Aoa-RADP)S] (Cambridge peptides) (625 nM). After 1 h incubation at RT, streptavidin-coated donor beads (7.5 µg/mL) and nickel chelate acceptor beads (7.5 µg/mL) (PerkinElmer AlphaScreen Histidine Detection Kit) were added under low light conditions, and plates were shaken at 400 rpm for 60 min at RT protected from light. Plates were kept covered and protected from light at all steps and read on the BioTek plate reader using an AlphaScreen 680 excitation/570 emission filter set. For counter screening of the compounds, 25 nM biotinylated and hexahistidine-tagged linker peptide (Bn-His6) (PerkinElmer) was added to the compounds, followed by the addition of beads as described above. For data analysis, the percent inhibition was normalized to positive (DMSO+ labeled peptide) and negative (DMSO + macrodomain + peptide, no ADPr) controls. The IC50 values were calculated via four-parametric non-linear regression analysis, constraining bottom (=0), top (=100), & Hillslope (=1) for all curves.

Another data set deals with DBT cells. In words: Cell viability, MTT assay, DBT cells. The data set is classed as cell-based. Particulars: concentrations tested. On the procedure: (§1) Delayed brain tumor (DBT), L929, and Calu3 Cellular metabolic activity was assessed using a CyQUANT MTT cell proliferation assay (Thermo Fisher Scientific) by following the manufacturer’s instructions.
The test system of another data set is Mac1. Particulars: cited from earlier work.
The next data set has as its system L929 cells. In words: Cell viability, MTT assay, L929 cells. The class given is cell-based. The conditions noted are these: concentrations tested. The protocol:
as §1

Data set [3] addresses T1, SARS-CoV-2 Mac1 (Severe acute respiratory syndrome coronavirus 2, UniProt P0DTD1). In words: Differential scanning fluorimetry (DSF) thermal shift assay. The class given is binding. Particulars: thermal stability of SARS-CoV-2 Mac1, increasing compound concentrations. On the procedure: Thermal shift assay with DSF involved the use of LightCycler 480 Instrument (Roche Diagnostics). In total, a 15 µL mixture containing 8 × SYPRO Orange (Invitrogen) and 10 µM macrodomain protein in buffer containing 20 mM HEPES-NaOH, pH 7.5, and various concentrations of ADP-ribose or hit compounds was mixed on ice in a 384-well PCR plate (Roche). Fluorescent signals were measured from 25 to 95°C in 0.2°C/30/S steps (excitation, 470–505 nm; detection, 540–700 nm). The main measurements were carried out in triplicate. Data evaluation and Tm determination involved the use of the Roche LightCycler 480 Protein Melting Analysis software, and data fitting calculations involved the use of single-site binding curve analysis on GraphPad Prism. The thermal shift (ΔTm) was calculated by subtracting the Tm values of the DMSO from the Tm values of the compounds.

The target of data set [4] is T1, SARS-CoV-2 Mac1. In words: biochemical. Particulars: inhibition of Mac1 binding to ADP-ribosylated peptide; average of 2 independent experiments; read-out: Mac1 IC50 (AlphaScreen assay).
The subject of data set [5] is JHMV. The data set is classed as cell-based, murine hepatitis virus (MHV). The conditions noted are these: 150 μM.
Data set [6] relates to JHMV. In words: microbe, parasite or virus in culture. The conditions noted are these: for Concentration at which infectious virus production was inhibited: lowest effective concentration tested. The data set is classed as cell-based, murine hepatitis virus (MHV).
Data set [7] relates to SARS-CoV-2 (Wuhan strain). In words: microbe, parasite or virus in culture. The class given is cell-based. Particulars: for EC50: Severe acute respiratory syndrome coronavirus 2, Calu-3, presence of IFN-γ, estimated from fold reductions, read-out: EC50 against SARS-CoV-2.
Data set [8] relates to JHMV-WT. Description: microbe, parasite or virus in culture. The data set is classed as cell-based, murine hepatitis virus (MHV). Particulars: for Inhibition of MHV, dose-response: 50 to 200 μM, stated for both DBT and L929 cells, better activity on DBT.
Data set [9] relates to JHMV-WT. Description: microbe, parasite or virus in culture. The class given is cell-based, murine hepatitis virus (MHV). The conditions noted are these: for EC50: Murine coronavirus, read-out: EC50, % JHMV-WT inhibition on DBT cells.
A further data set deals with Calu-3 cells. Description: Cell viability, MTT assay, Calu-3 cells. The data set is classed as cell-based. The protocol:
as §1

For another data set, the system named is MERS-CoV. The data set is classed as cell-based.
The conditions of data set [10]: read-out: Reported EC50; cited from earlier work.
The mark [11] stands for this setting: Calu-3, IFN-γ pre-treated (100 U), 12.5 μM.
Setting [12] is: Calu-3, IFN-γ pre-treated (100 U), 25 μM.

Several values for one entry are separate records, joined by “and”; a condition that tells them apart may be missing. Equal values may be shown once. Read-outs that look alike come from different tables or passages of the source.

The compound `O=C(O)C(Cc1c[nH]c2ccccc12)Nc1ncnc2[nH]ccc12` (stereo not shown) [Compound 4a] gave a logD in [1] of -0.61. In the data set with JHMV-nLuc, the “JHMV-nLuc replication (luciferase activity), words” value (“JHMV-nLuc replication” for short) is given as “did not affect JHMV replication”. In addition, the concentration for half-maximal inhibition (IC50) in data set [2] was more than 100 µM; on SARS-CoV-2 Mac1 [4], 6.1 µM. Moreover, the “Cell viability (MTT), words” value in the data set with DBT cells and in the data set with L929 cells was “do not impact the viability” throughout. Further, the “Mac1 enzyme activity” value with Mac1 is on record as “inhibited Mac1 enzyme activity”. Moreover, the “DSF assay ΔTm” value at SARS-CoV-2 Mac1 [3] worked out at 4.32 °C.
As for `O=C(O)C(Cc1c[nH]c2ccccc12)Nc1ncnc2[nH]ccc12` (stereo not shown) [Compound 4b], the “JHMV-nLuc replication” value in the data set on JHMV-nLuc is recorded as “did not affect JHMV replication”. Besides, the half-maximal inhibitory concentration (IC50) in data set [2] is more than 100 µM; at SARS-CoV-2 Mac1 [4], 1.66 µM and < 2 µM. Moreover, in data set [2] (unit not given), the “Bn-His IC50 (AlphaScreen counter screen)” value was “almost no inhibition”. Further, the “DSF assay ΔTm” value at SARS-CoV-2 Mac1 [3] stood at 4.46 °C.
`COC(=O)[C@H](Cc1c[nH]c2ccccc12)Nc1ncnc2[nH]ccc12` [Compound 5a] registered a pH-dependent lipophilicity (logD) in data set [1] of 1.5. The “JHMV-nLuc replication” value in the data set with JHMV-nLuc was “inhibited JHMV replication”. For the same compound, the entries for the “Fold change in PFU/mL, 5a versus DMSO” value in the data set with JHMV [5] (passage 1 (P1)), in the data set with JHMV [5] (passage 2 (P2)) and in the data set with JHMV [5] (passage 3 (P3)) were 3.17 X, -2.0 X and -1.1 X, respectively. Besides, the half-inhibitory concentration (IC50) in [2] is more than 100 µM; on SARS-CoV-2 Mac1 [4] it was 14.1 µM. The “Cell viability (MTT), words” value with DBT cells and in the data set with L929 cells was “do not impact the viability” in each case. For the same compound, the “DSF assay ΔTm” value at SARS-CoV-2 Mac1 [3] was 0.97 °C. Besides, the “Concentration at which infectious virus production was inhibited” value with JHMV [6] was found to be 200 µM.
The compound `CC(C)OC(=O)[C@H](Cc1c[nH]c2ccccc12)Nc1ncnc2[nH]ccc12` [Compound 5c] yielded a logD in data set [1] of 3.33. Also, the “Reduction of viral titers” value in [7] (setting [11]) is 3 fold; in [7] (setting [12]), 7.5 fold; in data set [7] (Calu-3, absence of IFN-γ, 25 μM), ~ 2 fold. In addition, the EC50 was not above 12.5 µM in [7]; 20 µM with JHMV-WT [8] (Murine coronavirus, L929, read-out: EC50, % JHMV-WT inhibition on L929 cells); 18.3 µM with JHMV-WT [9]; 10 to 20 µM with JHMV [6] (Murine coronavirus, 0 to 50 μM on DBT, and 17 Cl-1 cells, read-out: EC50 for inhibition of virus production). Besides, the “JHMV-nLuc replication” value in the data set on JHMV-nLuc was “inhibited JHMV replication”. For the same compound, the “Decrease in replication (infectious virus)” value in the data set with JHMV-WT [8] (50 μM, L929 cells) is approximately 3 logs; in the data set on JHMV-WT [9] (50 μM, DBT cells), ~ 1.5 logs. The IC50 is 25.5 µM in data set [2] and 3.66 µM at SARS-CoV-2 Mac1 [4]. Besides, the “Cell viability (MTT), words” value in the data set with DBT cells, with L929 cells and in the data set on Calu-3 cells was “do not impact the viability” each time. Moreover, the “DSF assay ΔTm” value at SARS-CoV-2 Mac1 [3] came to 0.76 °C. For the same compound, the “Concentration at which infectious virus production was inhibited” value in the data set on JHMV [6] was found to be 25 µM. Moreover, the “MERS-CoV replication” value with MERS-CoV is “did not inhibit MERS-CoV replication”.
For `O=C(NCc1ccncc1)[C@H](Cc1c[nH]c2ccccc12)Nc1ncnc2[nH]ccc12` [Compound 6a], the IC50 in data set [2] is more than 100 µM; on SARS-CoV-2 Mac1 [4] it was 8.37 µM. Further, the “DSF assay ΔTm” value at SARS-CoV-2 Mac1 [3] amounted to 1.29 °C.
Taken in the same sequence, the figures for `O=C(NCc1ccnc(Cl)c1)[C@H](Cc1c[nH]c2ccccc12)Nc1ncnc2[nH]ccc12` [Compound 6b] were more than 100 µM, 7.57 µM and 1.57 °C.
Taken in the same sequence, the figures for `NC(=O)[C@H](Cc1c[nH]c2ccccc12)Nc1ncnc2[nH]ccc12` [Compound 6c] were more than 100 µM, 4.04 µM and 3.06 °C.
Turning to `O=C(NCc1ccccn1)[C@H](Cc1c[nH]c2ccccc12)Nc1ncnc2[nH]ccc12` [Compound 6d], the “JHMV-nLuc replication” value in the data set with JHMV-nLuc was “inhibited light production from MHV replication in a dose-dependent manner”. In addition, the “Inhibition of MHV, dose-response” value in the data set on JHMV-WT [8] is “inhibited MHV in a dose-dependent manner”. In addition, the EC50 in the data set with JHMV-WT [9] was determined as 77.1 µM. Besides, the concentration for half-maximal inhibition (IC50) in data set [2] stood at 79.2 µM; at SARS-CoV-2 Mac1 [4], 7.58 µM. For the same compound, the “Cell viability (MTT), words” value in the data set on DBT cells and with L929 cells was “do not impact the viability” each time. Moreover, at SARS-CoV-2 Mac1 [3], the “DSF assay ΔTm” value stood at 1.39 °C.
Take `O=C(NCc1ccccn1)[C@@H](Cc1c[nH]c2ccccc12)Nc1ncnc2[nH]ccc12` [Compound 6e]: the figures for the “Reduction of viral titers” value in [7] (setting [11]) and in data set [7] (setting [12]) were 2.7 fold and 3.8 fold, respectively. Moreover, the “Infectious virus production” value in data set [7] (Calu-3, absence of IFN-γ, 0 to 25 μM) is reported as “did not reduce infectious virus production”. The figures for the EC50 (in [7]; in the data set on JHMV-WT [9]) were not above 12.5 µM and 53.5 µM, respectively. The “JHMV-nLuc replication” value in the data set on JHMV-nLuc is listed as “inhibited light production from MHV replication in a dose-dependent manner”. The “Inhibition of MHV, dose-response” value in the data set with JHMV-WT [8] is given as “inhibited MHV in a dose-dependent manner”. In addition, the IC50 in [2] was 39.6 µM; at SARS-CoV-2 Mac1 [4], 4.85 µM. Further, the “Cell viability (MTT), words” value in the data set with DBT cells, in the data set on L929 cells and in the data set on Calu-3 cells was “do not impact the viability” throughout. The “DSF assay ΔTm” value on SARS-CoV-2 Mac1 [3] is 1.17 °C. In the data set with MERS-CoV, the “MERS-CoV replication” value is listed as “did not inhibit MERS-CoV replication”.
Consider `N#C[C@@]1(c2ccc3c(N)ncnn23)O[C@H](CO)[C@@H](O)[C@H]1O` [GS-441524, reference compound], for which the “JHMV-nLuc replication” value in the data set with JHMV-nLuc is on record as “inhibited virus replication at all concentrations”. Besides, the EC50 in data set [10] is approximately 0.84 µM.

Source of the values: PMC12153294 (mBio, 2025).
